Read-outs that look alike come from different tables or passages of the source.
Columns and labels:
HepG2 cells = experiment: Cytotoxicity in HepG2 cells (intracellular ATP, ATPlite, 48 h); format: cell-based, human; conditions: IC50 HepG2 divided by IC50 P. falciparum gametocytes
[1] = as above; format: cell-based, human; conditions: human, HepG2 cells
[2] = system: P. falciparum asexual stages; conditions: TCAMS data, cited from earlier work
[3] = system: P. falciparum stage V gametocytes; experiment: Gametocytocidal ATP bioluminescence assay (single point 5 μM and 1 μM, dose-response); format: cell-based, Plasmodium falciparum; conditions: for Ratio IC50 HepG2/IC50 P. falciparum: IC50 HepG2 divided by IC50 P. falciparum gametocytes
Procedure: Purified stage IV-V gametocytes were obtained as previously described [10]. Single point ATP bioluminescence assay and dose–response of positive hits was determined in accordance with the previously published protocol [10].

[4] = system: luciferase reaction (BacTiter-Glo); experiment: Interference assay (inhibition of the BacTiter-Glo luciferase reaction); format: biochemical; parameters: concentration or dose not given beside the values; conditions: ATP interference assay
Procedure: To discard possible false-positive results, we performed an interference assay in parallel. […] […]. The ATP solution was made by dissolving ATP powder (ATP standard from the ATPlite 1 step assay kit, reference 6016731, Perkin Elmer) in culture medium. The positive control used was the Luciferase Inhibitor I Calbiochem (Merck, 119113) at 100 μM.

[5] = HepG2, 48 h exposure, intracellular ATP, read-out: IC50 (μM) Cytotoxicity HepG2
[6] = IC50 per ratio column head, unit inferred, read-out: Cytotoxicity in HepG2
[7] = P. falciparum asexual stages, read-out: IC50 (µM) Pf asexual stages
[8] = asexual stages, read-out: IC50 asexual
[9] = Plasmodium falciparum, P. falciparum gametocytes, average, read-out: IC50 Pf Gametocytes average, IC50 (µM) average
[10] = sexual stages (gametocytes), dose-response, read-out: IC50 sexual
[11] = Plasmodium falciparum, sexual stages (gametocytes), dose-response, read-out: IC50 sexual

| SMILES | Ratio IC50 HepG2/IC50 P. falciparum (HepG2 cells) | IC50 at 48 h [1, 5] [µM] | IC50 at 48 h [1, 6] [µM] | IC50 [2, 7] [µM] | IC50 [2, 8] [µM] | Ratio IC50 HepG2/IC50 P. falciparum [3] | IC50 [3, 9] [µM] | % Control luminiscence [4] [%] | IC50 [3, 10] [µM] | IC50 [3, 11] [µM] | IC50 ([1]; IC50 per ratio column head, unit inferred) [nM] | IC50 ([3]; Plasmodium falciparum, read-out: IC50 Pf Gametocytes average, IC50 (µM) average) [µM] | %_Inh ([3]; gametocytes, primary screen at 5 μM (S10 Table, MCSI analogs)) [%] |
| --- | --- | --- | --- | --- | --- | --- | --- | --- | --- | --- | --- | --- | --- |
| c1cc(CNCCN2CCNCC2)cc(-c2cccc(-c3nc4ccccc4[nH]3)c2)c1 [TCMDC-132859] | 27 | 19 | 19.3 | 0.96 | 0.959 | 27 | 0.71 | 100 |  |  |  |  |  |
| COc1cccc(C(=O)NC(C=Cc2ccccc2)c2cc(Cl)c3cccnc3c2O)c1 (stereo not drawn) [TCMDC-125550] | >43 |  | > 25 |  | 0.859 | >43 | 0.59 | 100 | 0.585 |  |  |  |  |
| c1ccc2sc(Sc3ncnc4sccc34)nc2c1 [TCMDC-125539] | >50 |  | > 25 | 0.73 | 0.734 | >50 | 0.5 | 100 |  | 0.497 |  |  |  |
| O=[N+]([O-])c1ccc(C=NNc2nc(Nc3ccccc3)nc(Nc3ccccc3)n2)o1 [TCMDC-125802] | 11 |  | 14.8 |  | 0.837 | 11 | 1.31 | 100 | 1.31 |  |  |  |  |
| Fc1ccc2[nH]c(-c3cccc(-c4ccc(CNCCN5CCNCC5)cc4)c3)nc2c1 [TCMDC-132863] | 17 | 24 | 24.2 | 0.9 | 0.904 | 17 | 1.45 | 100 |  | 1.45 |  |  |  |
| Ic1cc(CNC2CCCCC2)ccc1OCc1cccc(COc2ccc(CNC3CCCCC3)cc2I)c1 [TCMDC-137261] | >75 |  | > 25 |  | 0.829 | >75 | 0.33 | 100 | 0.333 |  |  |  |  |
| COCCCNC(=S)NN=C(C)c1ccccn1 [TCMDC-137907] | 106 |  | 17 | 0.3 | 0.296 | 106 | 0.16 | 100 |  |  |  |  |  |
| CN(C)CCCNc1nccc(N(C)c2ccc(NC(=O)Nc3cc(C(F)(F)F)ccc3F)cc2)n1 [TCMDC-141633] | 17 |  | 17.3 |  | 0.98 | 17 | 1 | 100 | 0.997 |  |  |  |  |
| Cl.c1ccc2c(NCCCCCCNc3c4ccccc4nc4ccccc34)c3ccccc3nc2c1 [TCMDC-124285] |  |  |  |  | 0.753 | 28 |  | 100 | 0.247 |  | 7000 | 0.25 |  |
| COc1cc(-c2cc(-c3ccc(S(C)(=O)=O)cc3)cnc2N)ccc1O [TCMDC-133343] |  |  | > 25 | 0.1 | 0.101 |  | 1.24 | 100 |  | 1.24 |  |  |  |
| COc1cc(NCC(C)CNCc2cn(Cc3ccccc3)c3ccccc23)nc2ccccc12 (stereo not drawn) [TCMDC-140496] |  |  | 5 |  | 0.633 | 3 | 1.71 | 100 |  |  |  |  |  |
| Cc1cccc2nc(-c3ccc(-c4ccc(CN5CCC(CCN6CCCCC6)CC5)cc4)cc3)[nH]c12 [TCMDC-133929] |  |  | 3.7 |  | 0.144 | 14 | 0.27 | 100 | 0.267 |  |  |  |  |
| COc1ccc(C[C@H](N)C(=O)N[C@H]2[C@@H](O)[C@H](n3cnc4c(N(C)C)ncnc43)O[C@@H]2CO)cc1 [TCMDC-123493] |  |  | 2.95 |  | 0.174 | 5 | 0.56 | 100 | 0.563 |  |  |  |  |
| S=C(NN=Cc1ccccn1)Nc1ccc2c(c1)OCCO2 [TCMDC-132009] |  |  | 3.28 |  | 1.05 | 4 | 0.83 | 100 |  |  |  |  |  |
| COc1cc2nc(N3CCC(CNC(=O)c4ccc(-c5ccc(-c6noc(C)n6)cc5)cc4)CC3)nc(N)c2cc1OC [TCMDC-138754] |  |  | 4.33 |  | 0.139 | 39 | 0.11 | 97 |  |  |  |  |  |
| CCc1ccc(CN2CCC(CNC(=O)c3cc(-c4cccc(F)c4)cs3)C2)cc1 (stereo not drawn) [TCMDC-134432] |  |  | 7.22 |  | 1.36 | 6 | 1.26 | 100 | 1.26 |  |  |  |  |
| COc1cc2nc(N3CCC(CNCc4ccc(-c5ccc(C(F)(F)F)cc5)cc4)CC3)nc(N)c2cc1OC [TCMDC-138757] |  |  | < 1.56 |  | 0.087 | <88 | 0.0177 | 100 | 0.018 |  |  |  |  |
| FC(F)(F)c1ccc2[nH]c(-c3ccc(-c4cccc(CN5CCC(CCN6CCCCC6)CC5)c4)cc3)nc2c1 [TCMDC-133941] |  |  | 3.4 |  | 0.153 | 6.67 | 0.51 | 100 |  |  |  |  |  |
| CCOc1ccc(-c2nonc2NC(=O)c2cccc(Cl)c2)cc1OCC [TCMDC-125200] |  |  | > 25 | 0.15 | 0.147 |  | 0.84 | 100 |  |  |  |  |  |
| Fc1ccc2[nH]c(-c3cccc(-c4ccc(CN5CCC(CCN6CCCCC6)CC5)cc4)c3)nc2c1 [TCMDC-133940] |  |  | 5.2 |  | 0.142 | 12 | 0.43 | 100 | 0.433 |  |  |  |  |
| Cc1cccc2nc(-c3ccc(-c4cccc(CN5CCC(CCN6CCCCC6)CC5)c4)s3)[nH]c12.O=C(O)C(F)(F)F [TCMDC-133923] |  |  | 3.87 |  | 0.14 | 8 | 0.46 | 100 |  | 0.463 |  |  | 107.301 |
| Fc1ccc2[nH]c(-c3ccc(-c4ccc(CN5CCC(CCN6CCCCC6)CC5)cc4)cc3)nc2c1 [TCMDC-133924] |  |  | 5.3 |  | 0.129 | 12 | 0.46 | 100 |  |  |  |  |  |
| N=C(NCC1CC1c1ccccc1)c1cccc(C(=N)NCC2CC2c2ccccc2)n1 (stereo not drawn) [TCMDC-137456] |  |  | 6.8 |  | 1.76 | 15 | 0.45 | 100 |  |  |  |  |  |
| CN1CCN(CCCCNc2c3ccccc3nc3ccccc23)CC1 [TCMDC-137479] |  |  | 3.39 |  | 0.704 | 2.57 | 1.32 | 100 | 1.32 |  |  |  |  |

Reference: PMC4552634, “A New Set of Chemical Starting Points with Plasmodium falciparum Transmission-Blocking Potential for Antimalarial Drug Discovery” (PLoS ONE, 2015)
